Measured values as given in patent US4853401A, “Spiro-hydantoins as aldose reductase inhibitors” (priority 1987, dated 1989).

Tests used:
[1] = test system: accumulation of galactitol in fibroblasts obtained from human skin; experiment: Inhibition of accumulation of galactitol in fibroblasts; assay type: cell-based; conditions: Fibroblast, 48 h, 37° C., galactose 3 mg/ml
Experimental: 1.2 Inhibiting effect on accumulation of galactitol:
A test for evaluating this activity was made in vitro on fibroblasts obtained from human skin.
An experimental model culture was obtained by incubating the cells in the presence of a medium containing a high concentration of galactose (3 mg/ml) and the product under test, and measuring the accumulation of galactitol in the cells after a 48-hour incubation period at 37° C. The cells were then isolated, washed in physiological salt solution and treated with a water-ethanol solution. The medium was centrifuged and the supernatant liquid was lyophylized.
The galactitol in the resulting sample was determined by HPLC (=high pressure liquid chromatography) after derivatives had been obtained with phenyl isocyanate.
The proportion of proteins in the precipitate obtained during the previously-mentioned centrifuging was measured by the method of M. M. Bradford (Anal. Biochem., 72, 248-254 (1976)) and indicated the number of cells present in the sample.
The inhibiting effect of the tested product was expressed as a percentage inhibition of intracellular accumulation of galactitol compared with the controls.

[2] = test system: accumulation of sorbitol in the crystalline lenses; experiment: Inhibition of accumulation of sorbitol in crystalline lenses of diabetic rats; assay type: in vivo, Sprague Dawley rats; conditions: for Inhibition of accumulation of sorbitol in vivo, crystalline lenses: oral 25 mg/kg at 0, 7 and 24 h, sacrificed 27 h
Experimental: (§1) 2.1 Inhibition of accumulation of sorbitol in crystalline lenses and nerves of diabetic rats:
(§2) The effects of the products according to the invention on the proportion of plasma glucose and the accumulation of sorbitol in the crystalline lenses and sciatic nerves of rats made diabetic by streptozotocin were examined by the method of M. J. Peterson, et al (Metabolism, 28, 456-461 (1979)).
(§3) Fasted Sprague Dawley rats were made diabetic by intraperitoneal injection of streptozotocin (75 mg/kg). The product under test was orally administered at a dose of 25 mg/kg after 0, 7 and 24 hours. The rats were sacrificed 27 hours after induction of diabetes. The crystalline lenses and sciatic nerves were taken and preserved at -20° C. until analysed. The crystalline lenses and sciatic nerves were homogenized in water and the proteins were precipitated from ethanol. The precipitate was eliminated by centrifuging and the supernatant liquid was lyophylised. The sorbitol in the sample was determined by the method of B. Bjorkqvist (J. of Chromatograph, 218, 65-71 (1981)), adapted by A. Lenaers et al. (Arch. Intern. Physiol. Bioch., 91, B, 62-63 (1983)).
(§4) The sample was dissolved in pyridine containing galactitol as an internal standard. Derivatives were formed therefrom by phenylisocyanate during incubation for 1 hour at 60° C. The reaction was then stopped by adding methanol and the derivatives were separated and determined by HPLC.
(§5) The results are expressed as percentage inhibition of the accumulation of sorbitol, compared with the controls.

[3] = Acute oral toxicity (LD50); assay type: in vivo; conditions: mouse, in vivo, mice, read-out: Lethal dose LD50
Experimental: (§6) The LD 50 was calculated by the method of Litchfield and Wilcoxon (J. Pharmacol. Exp. Ther., 96, 99, 1949) and is expressed in mg/kg. The products were orally administered to mice.
(§7) Behaviour was studied, 2, 4, 6 and 24 hours after treatment. Observation was continued if symptoms persisted at that time. Deaths were recorded during the 14 days after treatment. The results are given in Table II, in which the numbers of the compounds are the same as the numbers given in column 1 of Table I.

[4] = Effect of in vivo doses on plasma glucose of diabetic rats; design: species or system Sprague Dawley rats; conditions: n = 5, average ± standard deviation
Experimental: Compound No. 1 (CP 3182 AR) and No. 2 (CP 3192 AR) were evaluated at various doses, using the experimental model described hereinbefore (.sctn.2.1).
In the case of each product, 25 Sprague Dawley rats fasted the previous day were made diabetic by an intraperitoneal injection of streptozotocin (75 mg/kg). The rats were divided into 5 groups of 5, each orally given 0.3, […] or 10 mg/kg of CP 3182 AR or a control.
An identical experiment was performed with CP 3192 AR at the same doses. Treatment was given immediately after the streptozotocin, and 7 and 24 hours later. The animals were sacrificed 27 hours after induction. Estimates were made of the effects of the products on the proportion of plasma glucose and the sorbitol content of the crystalline lenses and sciatic nerves of rats.

[5] = test system: mice; experiment: Effect on behaviour (Irwin method), side effects; assay type: in vivo
Experimental: The effect on behaviour was studied by a method derived from that of S. Irwin (Gordon Res. Conf. on Medicinal Chem., 133, 1959). The substances, suspended in 1% tragacanth mucilage, were orally administered via an intra-gastric probe to groups of 5 male mice fasted for 18 hours. The maximum tested dose was 3 000 mg/kg or 1 000 mg/kg, and smaller doses were tested if an effect has been observed.
as §7

[6] = test system: sorbitol accumulation in crystalline lenses; experiment: Effect of in vivo doses on sorbitol accumulation in crystalline lenses of diabetic rats; design: species or system Sprague Dawley rats; conditions: for ED50: Rattus norvegicus, 27 h, diabetic rats, oral, read-out: ED50 (dose at which measured inhibition of aldose reductase activity is 50%); for ED50 / therapeutic index MED/ED50, crystalline lenses: crystalline lenses
Excerpt: (§8) 2.2 Effect of "in vivo" doses on sorbitol accumulation in sciatic nerves and crystalline lenses of diabetic rats:
(§9) Estimates were made of the effects of the products on the proportion of plasma glucose and the sorbitol content of the crystalline lenses and sciatic nerves of rats.

[7] = test system: sorbitol accumulation in sciatic nerves; experiment: Effect of in vivo doses on sorbitol accumulation in sciatic nerves of diabetic rats; design: species or system Sprague Dawley rats; conditions: for ED50: Rattus norvegicus, 27 h, diabetic rats, oral, read-out: ED50 (dose at which measured inhibition of aldose reductase activity is 50%); for ED50 / therapeutic index MED/ED50, sciatic nerves: sciatic nerves
Excerpt: as §8, §9

[8] = test system: accumulation of sorbitol in the sciatic nerves; experiment: Inhibition of accumulation of sorbitol in sciatic nerves of diabetic rats; assay type: in vivo, Sprague Dawley rats; conditions: oral 25 mg/kg at 0, 7 and 24 h, sacrificed 27 h
Experimental: as §1, §2, §3, §4, §5

[9] = biological target: T1, aldose reductase (Rattus norvegicus, UniProt P07943); experiment: Inhibition of enzymatic activity of aldose reductase in vitro; assay type: biochemical; conditions: 10^-4 M, rat crystalline lens enzyme, pH 6.2, D,L-glyceraldehyde substrate; read-out: Inhibition of enzymatic activity of AR in vitro
T1 construct: The supernatant liquid formed the enzyme solution used for the test; from tissue; host or cells: rat crystalline lens, water homogenate, supernatant
Excerpt: 1.1 Inhibiting effect on enzymatic activity of aldose reductase:
The method described by S. Hayman and J. H. Kinoshita (J. Biol. Chem., 240, 877 (1965)) was used for in vitro testing of the aforementioned effect of the products according to the invention.
Rat's crystalline lens was homogenized in water and centrifuged to eliminate insoluble substances. The supernatant liquid formed the enzyme solution used for the test.
(§10) The effect of products according to the invention in inhibiting enzymatic activity of aldose reductase was determined by spectrophotometrically following for 5 minutes the disappearance of NADPH in an aqueous solution containing 0.067M phosphate buffer (final pH: 6.2), 0.40M lithium sulphate, 5.10^-5 M NADPH, 10^-4 M of the product under test and 100 μl of the enzyme solution, to which 10^-2 M of D,L-glyceraldehyde had been added as substrate. (NADPH=reduced form of nicotinamide adenine dinucleotide phosphate).
The inhibiting effect observed in the presence of 10^-4 M of product under test relative to the reaction in the absence of a compound according to the invention, is expressed as a percentage.

[10] = Solubility in the aldose reductase test medium; assay type: physicochemical; conditions: 10^-4 M, aqueous phosphate buffer pH 6.2
Experimental: as §10

[11] = test system: mice; experiment: Acute oral toxicity (LD50); assay type: in vivo; conditions: 3 000 mg/kg
Experimental: as §6, §7

## O=C1N(CO)C(=O)C2(c3ccccc3-c3ccccc32)N1CO [Compound 1, bis-(1',3'-hydroxymethyl)-spiro-/fluorene-9,4'-imidazolidine/-2',5'-dione]
[1]; 10^-4 M
  inhibition at 100 µM: 85%
[1]; 10^-5 M
  inhibition at 10 µM: 58%
[1]; 10^-6 M
  inhibition at 1 µM: 21%
[2]
  Inhibition of accumulation of sorbitol in vivo, crystalline lenses: 81%
[2]; oral 25 mg/kg, lenses and sciatic nerves
  inhibition of accumulation of sorbitol in crystalline lenses and sciatic nerves (in words): particularly active
[3]
  LD50 at 336 h: > 3000 mg/kg
[4]; 0.3 mg/kg oral
  Plasma glucose: 462 ± 60 mg/100 ml
[4]; 1 mg/kg oral
  Plasma glucose: 538 ± 34 mg/100 ml
[4]; 3 mg/kg oral
  Plasma glucose: 464 ± 62 mg/100 ml
[4]; 10 mg/kg oral
  Plasma glucose: 424 ± 37 mg/100 ml
[5]; dose of 3000 mg/kg
  side effect observed: no side effect was observed
[5]; mice, oral
  MED (minimum dose at which a side effect is observed): > 3 000 mg/kg
[6]; 0.3 mg/kg oral at 0, 7, 24 h
  % inhibition of sorbitol accumulation, Crystalline lenses: 0 ± 21%
[6]; 1 mg/kg oral at 0, 7, 24 h
  % inhibition of sorbitol accumulation, Crystalline lenses: 1 ± 3%
[6]; 3 mg/kg oral at 0, 7, 24 h
  % inhibition of sorbitol accumulation, Crystalline lenses: 41%
[6]; 10 mg/kg oral at 0, 7, 24 h
  % inhibition of sorbitol accumulation, Crystalline lenses: 71%
[6]
  ED50: 3 mg/kg
  therapeutic index MED/ED50, crystalline lenses: about 1 000
[7]; 0.3 mg/kg oral at 0, 7, 24 h
  % inhibition of sorbitol accumulation, Sciatic nerves: 29 ± 14%
[7]; 1 mg/kg oral at 0, 7, 24 h
  % inhibition of sorbitol accumulation, Sciatic nerves: 41 ± 10%
[7]; 3 mg/kg oral at 0, 7, 24 h
  % inhibition of sorbitol accumulation, Sciatic nerves: 69 ± 8%
[7]; 10 mg/kg oral at 0, 7, 24 h
  % inhibition of sorbitol accumulation, Sciatic nerves: 82 ± 6%
[7]
  ED50: 1 mg/kg
  therapeutic index MED/ED50, sciatic nerves: above 3 000
[8]
  Inhibition of accumulation of sorbitol in vivo, in sciatic nerves: 85%
[9]
  inhibition at 100 µM: 34%

## O=C(Cc1ccccc1)OCN1C(=O)N(COC(=O)Cc2ccccc2)C2(C1=O)c1ccccc1-c1ccccc12 [Compound 23]
[10]
  insolubility in the tested medium: insol
[2]
  Inhibition of accumulation of sorbitol in vivo, crystalline lenses: 5%
[8]
  Inhibition of accumulation of sorbitol in vivo, in sciatic nerves: 7%

## O=C1NC(=O)[C@@]2(CCOc3ccc(F)cc32)N1 [sorbinil, d-6-fluoro-spiro-/chromane-4,4'-imidazolidine/-2',5'-dione, reference compound]
[2]
  Inhibition of accumulation of sorbitol in vivo, crystalline lenses: 93%
[3]
  LD50 at 336 h: 1450 mg/kg
[11]
  mortality: all the mice died on the second day
[5]; mouse, in vivo, po
  MED (minimum dose at which a side effect is observed): 300 mg/kg
[5]; mouse, in vivo, po, 300 mg/kg
  duration of side effects: more than 24 hours
  side-effects: depression with loss of righting reflex and muscular hypotonia
[6]
  ED50: 1 mg/kg
  therapeutic index MED/ED50, crystalline lenses: 300
[7]
  ED50: 1 mg/kg
  therapeutic index MED/ED50, sciatic nerves: 300
[8]
  Inhibition of accumulation of sorbitol in vivo, in sciatic nerves: 85%
